Laboratory results reported in patent US10954222B2, “Benzothiophene compound, alternative autophagy-inducing agent and anticancer agent including the compound as active ingredient, and method for screening for compound having anticancer activity” (National University Corporation Tokyo Medical and Dental …, priority 2012, dated 2021).
Like-named read-outs stand apart in the source and are kept apart here.

Legend:
Lamp1-GFP/ATG5-KO MEFs = assay: Evaluation of activity to induce alternative autophagy (fluorescent bright spots due to aggregation of Lamp1-GFP); format: cell-based, mouse; settings: for aggregation of Lamp1-GFP, visually determined: concentrations of 10 μM or higher (10 to 50 μM), 5 hours; for alternative autophagy-inducing activity (FIG. 16): Example 9, same method as Example 1; for ability to induce alternative autophagy, comparative statement: as shown in Examples
Experimental: First, by using a retrovirus, a gene for expression of a Lamp1-GFP fusion protein (also referred to as “Lamp1-GFP”) was introduced into ATG5-deficient mouse embryonic fibroblasts (also referred to as “ATG5-KO MEFs”). Then, a cell with high expression of Lamp1-GFP was cloned and prepared as Lamp1-GFP/ATG5-KO MEFs.
The ATG5-KO MEFs were prepared by introducing a gene for expression of SV40T antigen into MEFs established from an ATG5-deficient C57/B6J mouse at a fetal age of 14.5 days by an electroporation method using an Nucleofector system (manufactured by amaxa) for immortalization. In addition, the retrovirus was prepared by introducing an MSCV-Lamp1-GFP (zeocin resistant) vector into plat E cells, which were retrovirus packaging cells.
To the Lamp1-GFP/ATG5-KO MEFs seeded at 1×10^4/96 wells on the preceding day, each of the test compounds was added at a final concentration of 50 μM, and the Lamp1-GFP/ATG5-KO MEFs were cultured at 37° C. under 10% CO2 for 5 hours.
Then, for observation, Hoechst 33342 (manufactured by invitrogen) was added at a final concentration of 1 ng/ml to each culture liquid, followed by incubation for 5 minutes. Then, the culture liquid was replaced with 100 μl of HBSS. Subsequently, five visual fields per well were photographed at random with IN CELL ANALYZER 1000 (manufactured by GE Healthcare).
Then, the thus obtained novel benzothiophene compounds (TMD-459 and TMD-460) were evaluated for the ability to induce alternative autophagy by the same method as that described in Example 1. Note that, in Example 10, each of the compounds was added to culture liquids at final concentrations of 10, 20, 30, 40, and 50 μM. In addition, compound #9 was also added as a reference example to culture liquids at the above-described concentrations. Then, 5 hours after the addition of each of these compounds, five visual fields per each well were photographed at random with IN CELL ANALYZER 1000, and the presence or absence of fluorescent bright spots due to the aggregation of Lamp1-GFP was visually determined.

[1] = system: MEFs immortalized with SV40T antigen; settings: 24 hours, CTB
[2] = system: MEFs immortalized with SV40T antigen; assay: cells; settings: Mus musculus, 24 h, read-out: induced cell death of the MEFs immortalized with SV40T antigen
[3] = system: mouse tumor cell line 53T; assay: Evaluation of in vitro anticancer activity (Cell titer blue, cell death induction rate); format: cell-based; design: key: (CTB of negative control − CTB treated)/CTB of negative control; settings: 24 hours, CTB
Experimental: First, the mouse tumor cell line 53T was seeded at 2×10^4/well on 96 well plates. Then, on the following day, each of compounds #09 and #13 dissolved in DMSO was added at a final concentration of 1, 5, 10, 20, or 50 μM. In addition, a negative control to which only DMSO was added was prepared. Subsequently, the cells were cultured at 37° C. under 10% CO2 for 24 hours. Then, by using Cell titer blue (CTB) (manufactured by Promega) according to the attached protocol, the amount of the fluorescence of each well of the cells 10 minutes after the addition of the CTB reagent was measured as a CTB measurement value of the cells brought into contact with compound #09 or #13. On the basis of such measurement values, the cell death induction rate of each of compounds #09 and #13 was calculated according to the following formula. Cell death induction rate=(CTB measurement value of negative control−CTB measurement value of cells to which compound was added)/CTB measurement value of negative control

[4] = system: 53T implanted in wild-type C57/B6J mice; assay: Survival rate of cancer-bearing mice; format: in vivo, mouse; settings: 10 μM every other day 5 times; compared with etoposide at 10 μM, FIGS. 13 to 15
[5] = system: primary cultured fibroblasts (normal cells); assay: Activity to induce cell death specific to cancer cells: normal cells (CTB survival rate); format: cell-based; settings: 20 μM, FIGS. 7 and 8
Experimental: CTB measurement values were obtained in the same manner as in the above-described <Evaluation of In Vitro Anticancer Activity> by adding each of compounds #09 and #13 at a final concentration of 20 μM to culture liquids of primary cultured fibroblasts (normal cells) and fibroblasts (cancer cells) immortalized with SV40. On the basis of the obtained CTB measurement values, the cell survival rate was calculated over time. Note that the cell survival rate was defined as 1-cell death induction rate. FIGS. 7 and 8 show the obtained results.

[6] = system: p53-deficient cancer cells (53T); assay: Alternative autophagy-inducing activity in tumor cell line (Lamp2 aggregation, fluorescence and electron microscope); format: cell-based, mouse; settings: 20 μM, six hours, FIGS. 3 to 6
Experimental: In the same manner as in the above-described <Evaluation of Alternative Autophagy-Inducing Activity> using the Lamp1-GFP/ATG5-KO MEFs, each of the compounds #09 and #13 was added at a final concentration of 20 μM to a culture liquid of the tumor cell line (also referred to as “53T”) established from the tumor developed spontaneously in the p53 deficient C57/B6J mouse. […] Note that, in this evaluation, Lamp2 was used instead of Lamp1. FIGS. 3 to 6 show the obtained results.

[7] = system: fibroblasts (cancer cells) immortalized with SV40; assay: Activity to induce cell death specific to cancer cells: cancer cells (CTB survival rate); format: cell-based; settings: 20 μM, FIGS. 7 and 8
[8] = system: tumor cell line 53T implanted in wild-type C57/B6J mice; assay: In vivo anticancer activity, tumor volume in cancer-bearing mice implanted with 53T; design: species or system mouse; settings: for anticancer activity (FIG. 17, tumor volumes in cancer-bearing mice): Example 9
Experimental: A tumor cell line (also referred to as “53T”) established from a tumor developed spontaneously in a p53 deficient C57/B6J mouse was implanted at 4 sites in the ventral skin of each of wild-type C57/B6J mice at 3×10^5 cells per site. From the following day, the compounds were administered to the mice every other day five times in total. The concentration of each compound was 0.4 μmol/(50 μl DMSO+100 μl PBS)/mouse/administration. In addition, a negative control group to which only the same amount of DMSO was administered was prepared. Then, 21 days (3 weeks) after the implantation, the tumor diameters of the mice were measured, and the tumor volumes were calculated, and compared with that of the control group.
The 53T was implanted at 4 sites in the ventral skin of each of wild-type C57/B6J mice at 3×10^5 cells per site. From the following day, 0 (DMSO alone), 5, 10, or 20 μM of each of compounds #09 and #13 was administered to six mice every other day five times in total. Then, 21 days (3 weeks) after the implantation, the tumor diameters of the mice were measured, and the tumor volumes were calculated. FIGS. 9 and 11 show the obtained results. Note that, in FIGS. 9 and 11, each point indicates the average volume of the tumors at the four sites in a mouse.
In addition, in the same manner as described above, the 53T was implanted in mice, and, from the following day, each of compound #09 at a concentration of 10 μM and compound #13 at a concentration of 5 μM was administered to four cancer-bearing mice every other day five times in total. Then, 21 days (3 weeks) after the implantation, the tumor diameters of the mice were measured, and the tumor volumes were calculated. In addition, a negative control to which DMSO was administered was also prepared, and the tumor volume was calculated in the same manner. In addition, these experiments were conducted three times independently of each other. FIGS. 10 and 12 show the obtained results. Note that in FIGS. 10 and 12, each point indicates the average volume of the tumors at the four sites in a mouse.

[9] = Cell-killing effect (necrosis) of analogous compounds; format: cell-based; settings: even when added at a low concentration

CCOC(=O)c1c(NC(C)=O)sc2c(OCCN(CC)CC)c(-c3ccccc3)ccc12 [TMD-459, Ethyl 2-Acetylamino-7-[2-(N,N-diethylamino)ethyloxy]-6-phenylbenzo[b]thiophene-3-carboxylate]
aggregation of Lamp1-GFP, visually determined (Lamp1-GFP/ATG5-KO MEFs): aggregation of the Lamp1-GFP was observed in all the cells

CCOC(=O)c1c(N)sc2c(OCCN(CC)CC)c(Br)ccc12 [TMD-460, Ethyl 2-Amino-7-[2-(N,N-diethylamino)ethyloxy]-6-bromobenzo[b]thiophene-3-carboxylate]
Cell death induction rate ([1]; 10 μM): 0.7701 | Cell death induction rate ([1]; 20 μM): 0.875 | Cell death induction rate ([1]; 30 μM): 0.8885 | Cell death induction rate ([1]; 40 μM): 0.8902 | Cell death induction rate ([1]; 50 μM): 0.8919 | aggregation of Lamp1-GFP, visually determined (Lamp1-GFP/ATG5-KO MEFs): aggregation of the Lamp1-GFP was observed in all the cells | mortality at 20 µM [2]: ≥ 80%

N=C(Nc1ccc2c(c1)OCCO2)Nc1nc(-c2cccs2)cc(C(F)(F)F)n1 [compound 13]
Cell death induction rate ([3]; 1 μM): 0 | Cell death induction rate ([3]; 5 μM): 0.1776 | Cell death induction rate ([3]; 10 μM): 0.4559 | Cell death induction rate ([3]; 20 μM): 0.768 | Cell death induction rate ([3]; 50 μM): 0.9426 | improvement effect on the survival rate of the cancer-bearing mice [4]: higher improvement effect on the survival rate of the cancer-bearing mice than etoposide | cell death of normal cells (cell survival rate over time) [5]: hardly induced cell death of the normal cells | aggregation of Lamp2 and occurrence of autophagy [6]: aggregation of the lysosomal protein Lamp2 and occurrence of autophagy were observed | cell death-inducing activity on cancer cells (cell survival rate over time) [7]: exhibited remarkable cell death-inducing activity on the cancer cells | in vivo anticancer activity (tumor volume vs control group, FIG. 2) ([8]; 0.4 μmol/mouse/administration, every other day five times, 21 days after implantation): selected as compounds having in vivo anticancer activity | in vivo anticancer activity (tumor volume, FIGS. 9 to 12) ([8]; 5, 10, or 20 μM every other day five times, 21 days after implantation): exhibited in vivo anticancer activity | in vivo anticancer activity at low concentration (FIG. 11) ([8]; administered at 5 μM): exhibited remarkable anticancer activity

CCOC(=O)c1c(NC(C)=O)sc2c(OCC(O)CNC3CCCCC3)c(Br)ccc12 (stereo not drawn) [compound 36]
cell-killing effect (necrosis) [9]: strong cell-killing effect (necrosis)

CCOC(=O)c1c(NC(C)=O)sc2c(OC(C)=O)cccc12 [compound 37]
alternative autophagy-inducing activity (FIG. 16) (Lamp1-GFP/ATG5-KO MEFs): no alternative autophagy-inducing activity | anticancer activity (FIG. 17, tumor volumes in cancer-bearing mice) [8]: did not have anticancer activity

CCOC(=O)c1c(NC(C)=O)sc2c(NC(C)=O)cccc12 [compound 38]
alternative autophagy-inducing activity (FIG. 16) (Lamp1-GFP/ATG5-KO MEFs): no alternative autophagy-inducing activity | anticancer activity (FIG. 17, tumor volumes in cancer-bearing mice) [8]: did not have anticancer activity

COc1c(Br)ccc2c(C(=O)O)c(NC(C)=O)sc12 [compound 40]
alternative autophagy-inducing activity (FIG. 16) (Lamp1-GFP/ATG5-KO MEFs): no alternative autophagy-inducing activity | anticancer activity (FIG. 17, tumor volumes in cancer-bearing mice) [8]: did not have anticancer activity

CCOC(=O)c1c(NC(=O)c2ccccc2)sc2c(O)c(Br)cc(Br)c12 [compound 42]
alternative autophagy-inducing activity (FIG. 16) (Lamp1-GFP/ATG5-KO MEFs): no alternative autophagy-inducing activity | anticancer activity (FIG. 17, tumor volumes in cancer-bearing mice) [8]: did not have anticancer activity

CCOC(=O)c1c(NC(C)=O)sc2c(Cl)c(/C=N/c3ccccc3)cc(Br)c12 [compound 44]
alternative autophagy-inducing activity (FIG. 16) (Lamp1-GFP/ATG5-KO MEFs): no alternative autophagy-inducing activity | anticancer activity (FIG. 17, tumor volumes in cancer-bearing mice) [8]: did not have anticancer activity

CCCC(=O)c1c(NC(C)=O)sc2c(Cl)c(/C=N\CCCCO)ccc12 [compound 46]
alternative autophagy-inducing activity (FIG. 16) (Lamp1-GFP/ATG5-KO MEFs): no alternative autophagy-inducing activity | anticancer activity (FIG. 17, tumor volumes in cancer-bearing mice) [8]: did not have anticancer activity

C=CC/N=C/c1cc(C)c2c(C(=O)OCC)c(NC(C)=O)sc2c1Cl [compound 47]
cell-killing effect (necrosis) [9]: strong cell-killing effect (necrosis)

CCOC(=O)c1c(NC(C)=O)sc2c(OCCN(CC)CC)c(-c3ccc(OC)cc3)ccc12 [formula (1-10)]
ability to induce alternative autophagy, comparative statement (Lamp1-GFP/ATG5-KO MEFs): ability to induce alternative autophagy is higher

CCOC(=O)c1c(NC(C)=O)sc2c(OCCN(CC)CC)c(-c3ccccc3SC)ccc12 [formula (1-14)]
ability to induce alternative autophagy, comparative statement (Lamp1-GFP/ATG5-KO MEFs): ability to induce alternative autophagy is higher

CCOC(=O)c1c(NC(C)=O)sc2c(OCCN(CC)CC)c(-c3ccc(O)cc3)ccc12 [formula (1-15)]
ability to induce alternative autophagy, comparative statement (Lamp1-GFP/ATG5-KO MEFs): ability to induce alternative autophagy is higher

CCOC(=O)c1c(NC(C)=O)sc2c(OCCN(CC)CC)c(-c3cccs3)ccc12 [formula (1-17)]
ability to induce alternative autophagy, comparative statement (Lamp1-GFP/ATG5-KO MEFs): ability to induce alternative autophagy is higher

CCOC(=O)c1c(NC(C)=O)sc2c(OCCN(CC)CC)c(-c3ccsc3)ccc12 [formula (1-18)]
ability to induce alternative autophagy, comparative statement (Lamp1-GFP/ATG5-KO MEFs): ability to induce alternative autophagy is higher
